According to paper PMC6311682, “Design, Synthesis, and Biological Evaluation of 2-Nitroimidazopyrazin-one/-es with Antitubercular and Antiparasitic Activity” (Journal of Medicinal Chemistry, 2018):
Converted amounts (≈) assume the structure as drawn. Where two headings read alike, the source gives them in different places.

Legend:
[1] = tested on: E. histolytica (HM1:IMSS); assay: ATP-bioluminescence cell growth and survival assay, E. histolytica trophozoites; assay type: cell-based; conditions: Entamoeba histolytica
[2] = tested on: L. donovani MHOM/IN/80/DD8 (ATCC50212); assay: L. donovani DD8 intracellular (THP-1) amastigote assay; assay type: cell-based; conditions: Leishmania donovani
[3] = tested on: C. difficile (630, ATCC BAA-1382); assay: Broth microdilution MIC assay, C. difficile; assay type: cell-based, Clostridium difficile; conditions: 630 ATCC BAA-1382, median MIC; for MIC: Clostridioides difficile, ATCCBAA1382, read-out: antibacterial MIC C. difficile
[4] = Broth microdilution MIC assay, ESKAPE pathogens; assay type: cell-based; conditions: S. aureus, E. coli, K. pneumoniae, A. baumannii, P. aeruginosa; read-out: antibacterial MIC ESKAPE
[5] = tested on: ESKAPE pathogens S. aureus (ATCC 43300), E. coli (ATCC 25922), K. pneumoniae (ATCC 700603), A. baumannii (ATCC 19606), P. aeruginosa (ATCC 27853); assay: Broth microdilution MIC assay, ESKAPE pathogens; assay type: cell-based
[6] = tested on: C. albicans (ATCC 90028) and C. neoformans (H99, ATCC 208821); assay: Broth microdilution MIC assay, fungi; assay type: cell-based; conditions: for MIC: Candida albicans, read-out: antifungal MIC
[7] = Mammalian cytotoxicity assay (resazurin), HepG2; conditions: human, HepG2 cells
[8] = Mammalian cytotoxicity assay (resazurin), HEK293; conditions: human, HEK293 cells
[9] = Kinetic solubility determination by LC-UV; conditions: room temperature, 1% DMSO
[10] = read-out: antiparasitic IC50 E. histolytica
[11] = read-out: antiparasitic IC50 L. donovani
[12] = read-out: antiparasitic pIC50 ± SE L. donovani (converted)
[13] = PBS, pH 7.4, Solubility µM (PBS), PBS pH 7.4, 24 h
[14] = water, Solubility µM (H2O), 24 h
[15] = read-out: antiparasitic pIC50 ± SE E. histolytica (converted)

| Compound | IC50 [1, 10] [µM] | IC50 [2, 11] [µM] | IC50 [2, 12] [µM] | antibacterial MIC C. difficile [3] [µg/mL] | MIC [3] [µg/mL] | MIC [4] [µg/mL] | antibacterial MIC ESKAPE [5] [µg/mL] | MIC [6] [µg/mL] | CC50 at 24 h [7] [µM] | CC50 at 24 h [8] [µM] | antifungal MIC [6] [µg/mL] | solubility at 24 h [9, 13] [µM] | solubility at 24 h [9, 14] [µM] | IC50 [1, 15] [µM] |
| --- | --- | --- | --- | --- | --- | --- | --- | --- | --- | --- | --- | --- | --- | --- |
| O=c1c2nc([N+](=O)[O-])cn2ccn1CCN1CCOCC1 [17q, 4-(2-(2-Nitro-8-oxoimidazo[1,2-a]pyrazin-7(8H)-yl)ethyl)morpholin-4-ium 2,2,2-Trifluoroacetate] | > 50 | > 80 | > 79.4 | >64 | > 64 | > 32 | >32 | – | – | – | – | – | – | – |
| Cc1cn2cc([N+](=O)[O-])nc2c(OCc2cccc(OC(F)(F)F)c2)n1 [25k] | – | > 40 | > 39.8 | – | – | > 32 | – | > 32 | > 100 | > 100 | – | – | – | – |
| Cc1c(C)n2cc([N+](=O)[O-])nc2c(=O)n1Cc1cccc(OC(F)(F)F)c1 [26f, 5,6-Dimethyl-2-nitro-7-(3-(trifluoromethoxy)benzyl)imidazo[1,2-a]pyrazin-8(7H)-one] | – | – | – | – | – | > 32 | >32 | > 32 | 25.6 to 80 | – | >32 | 15.7 ± 0.404 (≈ 6 µg/mL) | 15.9 ± 1.55 (≈ 6.08 µg/mL) | – |
| Cc1nc(OCc2ccccc2OC(F)(F)F)c2nc([N+](=O)[O-])cn2c1C [26i, 5,6-Dimethyl-2-nitro-8-((2-(trifluoromethoxy)benzyl)oxy)imidazo[1,2-a]pyrazine] | – | – | – | – | – | > 32 | >32 | > 32 | > 100 | > 100 | >32 | < 5 | < 5 | – |
| O=C(Cn1ccn2cc([N+](=O)[O-])nc2c1=O)N1CCOCC1 [17r, 7-(2-Morpholino-2-oxoethyl)-2-nitroimidazo[1,2-a]pyrazin-8(7H)-one] | > 50 | > 80 | > 79.4 | >64 | > 64 | > 32 | >32 | – | – | – | – | 194 ± 0.526 (≈ 59.6 µg/mL) | 192 ± 1.51 (≈ 59 µg/mL) | > 50.1 |
| O=C(NCc1ccccc1)c1nc([N+](=O)[O-])c[nH]1 [16b, N-Benzyl-5-nitro-1H-imidazole-2-carboxamide] | – | – | – | – | – | – | – | – | > 100 | > 100 | – | – | – | – |
| Cc1ccc(CNC(=O)c2nc([N+](=O)[O-])c[nH]2)cc1 [16d, N-(4-Methylbenzyl)-5-nitro-1H-imidazole-2-carboxamide] | – | – | – | – | – | – | – | – | > 100 | > 100 | – | – | – | – |
| NC(=O)Cn1ccn2cc([N+](=O)[O-])nc2c1=O [17s, 2-(2-Nitro-8-oxoimidazo[1,2-a]pyrazin-7(8H)-yl)acetamide] | > 50 | > 80 | > 79.4 | >64 | > 64 | > 32 | >32 | – | – | – | – | > 200 | > 200 | > 50.1 |
| O=[N+]([O-])c1cn2ccnc(OCCc3ccc(OC(F)(F)F)cc3)c2n1 [18m, 2-Nitro-8-(4-(trifluoromethoxy)phenethoxy)imidazo[1,2-a]pyrazine] | – | – | – | – | 64 (≈ 174 µM) | > 32 | >32 | – | – | – | – | – | – | – |
| Cc1ccc(Cn2cc([N+](=O)[O-])nc2C(N)=O)cc1 [28d] | – | – | – | – | – | – | – | – | > 100 | > 100 | – | – | – | – |
| O=c1[nH]ccn2cc([N+](=O)[O-])nc12 [17a, 2-Nitroimidazo[1,2-a]pyrazin-8(7H)-one] | > 25 | > 80 | > 79.4 | >64 | > 64 | > 32 | >32 | – | – | – | – | > 200 | > 200 | > 25.1 |
| CC(c1ccc(F)cc1)n1ccn2cc([N+](=O)[O-])nc2c1=O (stereo not drawn) [17l, 7-(1-(4-Fluorophenyl)ethyl)-2-nitroimidazo[1,2-a]pyrazin-8(7H)-one] | > 50 | > 80 | > 79.4 | >64 | > 64 | > 32 | >32 | – | – | – | – | < 10 | < 10 | > 50.1 |
| Cc1cn2cc([N+](=O)[O-])nc2c(OCc2ccccc2OC(F)(F)F)n1 [25m, 6-Methyl-2-nitro-8-((2-(trifluoromethoxy)benzyl)oxy)imidazo[1,2-a]pyrazine] | – | > 40 | > 39.8 | – | – | > 32 | – | > 32 | > 100 | > 100 | – | < 5 | < 5 | – |
| O=c1c2nc([N+](=O)[O-])cn2ccn1CCO [17p, 7-(2-Hydroxyethyl)-2-nitroimidazo[1,2-a]pyrazin-8(7H)-one] | > 50 | > 80 | > 79.4 | >64 | > 64 | > 32 | >32 | – | – | – | – | > 200 | > 200 | > 50.1 |
| NC(=O)c1nc([N+](=O)[O-])cn1Cc1ccccc1 [28b] | – | – | – | – | – | – | – | – | > 100 | > 100 | – | – | – | – |
| Cc1ccc(Cn2ccn3cc([N+](=O)[O-])nc3c2=O)cc1 [17d, 7-(4-Methylbenzyl)-2-nitroimidazo[1,2-a]pyrazin-8(7H)-one] | – | > 80 | > 79.4 | – | – | > 32 | >32 | – | – | – | – | < 5 | < 5 | – |
| Cc1ccc(COc2nc(C)cn3cc([N+](=O)[O-])nc23)cc1 [25i, 6-Methyl-8-((4-methylbenzyl)oxy)-2-nitroimidazo[1,2-a]pyrazine] | – | – | – | – | – | > 32 | >32 | > 32 | > 100 | > 100 | >32 | < 5 | < 5 | – |
| O=c1c2nc([N+](=O)[O-])cn2ccn1Cc1ccccc1OC(F)(F)F [17i, 2-Nitro-7-(2-(trifluoromethoxy)benzyl)imidazo[1,2-a]pyrazin-8(7H)-one] | > 50 | > 40 | > 39.8 | – | – | > 32 | >32 | – | – | – | – | < 5 | < 5 | > 50.1 |
| O=c1c2nc([N+](=O)[O-])cn2ccn1Cc1ccc(F)cc1F [17j, 7-(2,4-Difluorobenzyl)-2-nitroimidazo[1,2-a]pyrazin-8(7H)-one] | > 50 | > 40 | > 39.8 | – | – | > 32 | >32 | – | – | – | – | < 5 | < 5 | > 50.1 |
| O=[N+]([O-])c1cn2ccnc(OCc3ccccc3OC(F)(F)F)c2n1 [18i, 2-Nitro-8-((2-(trifluoromethoxy)benzyl)oxy)imidazo[1,2-a]pyrazine] | > 50 | – | – | – | – | > 32 | >32 | – | – | – | – | < 5 | < 5 | > 50.1 |
| CC(=O)OCCn1ccn2cc([N+](=O)[O-])nc2c1=O [17o, 2-(2-Nitro-8-oxoimidazo[1,2-a]pyrazin-7(8H)-yl)ethyl Acetate] | > 50 | > 80 | > 79.4 | >64 | > 64 | > 32 | >32 | – | – | – | – | – | – | > 50.1 |
| Cc1c(C)n2cc([N+](=O)[O-])nc2c(=O)n1Cc1ccccc1OC(F)(F)F [26h, 5,6-Dimethyl-2-nitro-7-(2-(trifluoromethoxy)benzyl)imidazo[1,2-a]pyrazin-8(7H)-one] | – | – | – | – | – | > 32 | >32 | > 32 | > 100 | > 100 | >32 | 4.6 ± 0.6 (≈ 1.76 µg/mL) | 7.28 ± 0.695 (≈ 2.78 µg/mL) | – |
| O=c1c2nc([N+](=O)[O-])cn2ccn1Cc1ccccn1 [17k, 2-Nitro-7-(pyridin-2-ylmethyl)imidazo[1,2-a]pyrazin-8(7H)-one, 1TFA] | > 50 | > 80 | > 79.4 | >64 | > 64 | > 32 | >32 | – | – | – | – | – | – | > 50.1 |
| O=c1c2nc([N+](=O)[O-])cn2cc(-c2ccccc2)n1CCO [24d, 7-(2-Hydroxyethyl)-2-nitro-6-phenylimidazo[1,2-a]pyrazin-8(7H)-one] | – | – | – | >64 | > 64 | > 32 | >32 | > 32 | – | – | >32 | 164 ± 21 (≈ 49.2 µg/mL) | 163 ± 15 (≈ 48.9 µg/mL) | – |
